Among the data in patent US12209081B2 (Katholieke Universiteit Leuven, priority 2020, dated 2025) are IC50 values, retold here.

As usually defined, the IC50 is the point on the concentration scale where inhibition reaches its midpoint. Read a low IC50 as greater potency in that assay.

For this assay, the target named is mouse TRPM3α2 (mTRPM3) ion channel (Mus musculus (Mouse), UniProt J9SQF3). Kind of assay: TRPM3 ion channel driven Ca2+ uptake, Fluo-4 AM assay, mTRPM3alpha2 overexpressing flip-in HEK293 cells stimulated with pregnenolone sulfate. The assay is classed as cell-based. In short, it runs like this: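 Flip-in HEK293 cells loaded with Fluo-4 AM were added to plates holding compound plus 50 μM pregnenolone sulfate in Ca2+-containing Krebs buffer. Fluorescence (ex 485/em 535 nm) read directly after cell addition; % inhibition relative to PS-stimulated vehicle and positive-control inhibitor.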
mouse TRPM3α2 (mTRPM3) ion channel, sequence (J9SQF3 other isoform, or with tags, fused parts or gaps): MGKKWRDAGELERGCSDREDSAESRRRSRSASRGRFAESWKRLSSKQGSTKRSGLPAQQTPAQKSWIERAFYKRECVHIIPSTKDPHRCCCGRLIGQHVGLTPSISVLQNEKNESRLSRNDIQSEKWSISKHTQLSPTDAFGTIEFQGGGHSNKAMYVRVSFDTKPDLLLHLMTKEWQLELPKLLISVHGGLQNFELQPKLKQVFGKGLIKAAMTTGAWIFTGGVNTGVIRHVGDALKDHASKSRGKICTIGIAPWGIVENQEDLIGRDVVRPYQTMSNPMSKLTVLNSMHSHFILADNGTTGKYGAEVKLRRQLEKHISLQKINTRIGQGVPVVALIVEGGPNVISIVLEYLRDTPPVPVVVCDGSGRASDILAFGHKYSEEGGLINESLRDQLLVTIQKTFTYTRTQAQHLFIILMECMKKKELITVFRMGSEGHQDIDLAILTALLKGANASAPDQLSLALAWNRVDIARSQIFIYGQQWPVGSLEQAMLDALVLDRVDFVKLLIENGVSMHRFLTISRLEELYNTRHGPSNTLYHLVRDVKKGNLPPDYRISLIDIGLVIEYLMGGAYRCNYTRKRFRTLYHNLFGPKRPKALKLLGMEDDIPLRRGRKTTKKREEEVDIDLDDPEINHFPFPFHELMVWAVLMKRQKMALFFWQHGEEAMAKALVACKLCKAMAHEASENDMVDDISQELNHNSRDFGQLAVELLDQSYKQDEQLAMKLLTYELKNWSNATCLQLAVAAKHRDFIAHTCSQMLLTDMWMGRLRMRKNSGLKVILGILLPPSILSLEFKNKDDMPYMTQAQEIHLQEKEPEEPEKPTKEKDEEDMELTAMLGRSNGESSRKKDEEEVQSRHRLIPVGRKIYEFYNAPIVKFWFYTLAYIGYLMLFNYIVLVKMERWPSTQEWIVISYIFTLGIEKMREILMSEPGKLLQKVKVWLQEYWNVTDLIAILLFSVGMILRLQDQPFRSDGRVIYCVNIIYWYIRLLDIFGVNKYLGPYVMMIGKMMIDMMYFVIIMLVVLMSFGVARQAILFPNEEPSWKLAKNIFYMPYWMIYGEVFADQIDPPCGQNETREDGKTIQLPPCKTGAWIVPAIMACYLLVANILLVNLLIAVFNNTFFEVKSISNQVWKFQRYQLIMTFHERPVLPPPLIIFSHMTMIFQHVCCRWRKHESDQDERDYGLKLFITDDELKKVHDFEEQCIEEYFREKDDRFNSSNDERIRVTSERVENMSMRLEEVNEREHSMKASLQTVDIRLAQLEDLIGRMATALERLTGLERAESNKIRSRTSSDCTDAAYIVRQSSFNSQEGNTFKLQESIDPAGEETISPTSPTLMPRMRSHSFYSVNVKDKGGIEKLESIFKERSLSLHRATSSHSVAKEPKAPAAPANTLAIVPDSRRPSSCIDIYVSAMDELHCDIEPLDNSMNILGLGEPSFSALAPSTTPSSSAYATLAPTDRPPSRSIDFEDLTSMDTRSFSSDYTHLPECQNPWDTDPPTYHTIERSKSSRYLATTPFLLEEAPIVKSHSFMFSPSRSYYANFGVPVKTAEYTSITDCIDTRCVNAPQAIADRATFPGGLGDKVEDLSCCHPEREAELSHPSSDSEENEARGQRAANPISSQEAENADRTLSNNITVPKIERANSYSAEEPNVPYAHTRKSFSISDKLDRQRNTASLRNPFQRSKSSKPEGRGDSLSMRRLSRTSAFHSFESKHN

Setting [1] is: PS (50 μM) stimulated, cpd 001-199.
Where [2] appears, read: PS (50 μM) stimulated, cpds. 608-666.
The mark [3] stands for this setting: PS (50 μM) stimulated, cpds. 667-751.
Where [4] appears, read: PS (50 μM) stimulated, cpds. 400-499.
Setting [5] is: PS (50 μM) stimulated, cpds. 500-599.

Turning to `Cc1oc2ccc(OCc3cccnc3C(F)(F)F)cc2c1C(=O)NC1(CNCC(F)(F)F)CCC1` [compound 153, 2-methyl-N-(1-(((2,2,2-trifluoroethyl)amino)methyl)cyclobutyl)-5-((2-(trifluoromethyl)pyridin-3-yl)methoxy)benzofuran-3-carboxamide], the IC50 under setting [1] is under 1 µM.
In the case of `Cc1oc2ccc(OCc3cccc(O)n3)cc2c1C(=O)NC1(CO)CCOCC1` [compound 630, N-(4-(hydroxymethyl)tetrahydro-2H-pyran-4-yl)-5-((6-hydroxypyridin-2-yl)methoxy)-2-methylbenzofuran-3-carboxamide], the IC50 under setting [2] is over 20 µM.
With `Cc1oc2ccc(OCc3ccnn3CC(F)(F)F)cc2c1C(=O)N[C@@H](CO)C(N)=O` [compound 688, (S)-N-(1-Amino-3-hydroxy-1-oxopropan-2-yl)-2-methyl-5-((1-(2,2,2-trifluoroethyl)-1H-pyrazol-5-yl)methoxy)benzofuran-3-carboxamide], the IC50 under setting [3] was under 1 µM.
Consider `Cc1ncsc1COc1ccc2oc(C)c(C(=O)NC(CO)C(F)(F)F)c2c1` (single isomer, unassigned) [cpd 316-En 1], for which, for the setting “PS 50 μM, cpds 300-399”, the 50% inhibitory concentration (IC50) is under 1 µM.
Under setting [4], `Cc1oc2ccc(OCc3ccncn3)cc2c1C(=O)NC(C)(CO)CO` [compound 429, N-(1,3-dihydroxy-2-methylpropan-2-yl)-2-methyl-5-(pyrimidin-4-ylmethoxy)benzofuran-3-carboxamide] gave an IC50 of under 1 µM.
For the compound `Cc1ncsc1COc1ccc2oc(C)c(C(=O)NC(C)(C)C(N)=O)c2c1` [compound 440, N-(1-amino-2-methyl-1-oxopropan-2-yl)-2-methyl-5-((4-methylthiazol-5-yl)methoxy)benzofuran-3-carboxamide], under setting [4], the IC50 is under 1 µM.
Turning to `Cc1oc2ccc(OCc3cccc(=O)n3C)cc2c1C(=O)NC1CCNCC1(F)F` (single isomer, unassigned) [cpd 545-En 1], the IC50 under setting [5] was in the range of 1 to 20 µM.
Take `Cc1oc2ccc(OCc3ccncc3)cc2c1C(=O)N[C@@H](CO)C(N)=O` [compound 716, (S)-N-(1-Amino-3-hydroxy-1-oxopropan-2-yl)-2-methyl-5-(pyridin-4-ylmethoxy)benzofuran-3-carboxamide]: under setting [3], the IC50 is under 1 µM.
The same measure, in the same setting: with `Cc1ncc(COc2ccc3oc(C)c(C(=O)NC4(C(F)F)CCC4)c3c2)s1` [compound 683, N-(1-(Difluoromethyl)cyclobutyl)-2-methyl-5-((2-methylthiazol-5-yl)methoxy)benzofuran-3-carboxamide] the figure was under 1 µM.
Where the note is “PS 50 μM, cpds 300-399”, `Cc1ncsc1COc1ccc2oc(C)c(C(=O)N[C@@H]3C(=O)NC[C@H]3O)c2c1` [compound 392, N-((3S,4R)-4-hydroxy-2-oxopyrrolidin-3-yl)-2-methyl-5-((4-methylthiazol-5-yl)methoxy)benzofuran-3-carboxamide] returned an IC50 of under 1 µM.
For the compound `Cc1coc(COc2ccc3oc(C)c(C(=O)NC4CCNCC4(F)F)c3c2)n1` (single isomer, unassigned) [cpd 551-En 1], under setting [5], the IC50 was under 1 µM.
`Cc1ncsc1COc1ccc2oc(C)c(C(=O)NC3(CO)CCC3)c2c1` [compound 107, N-(1-(hydroxymethyl)cyclobutyl)-2-methyl-5-((4-methylthiazol-5-yl)methoxy)benzofuran-3-carboxamide] had an IC50 under setting [1] of under 1 µM.
`Cc1oc2ccc(OCc3ncccc3F)cc2c1C(=O)NC1CCNCC1(F)F` (single isomer, unassigned) [cpd 566-En 2]: under setting [5], the IC50 fell in the range of 1 to 20 µM.
In the case of `Cc1ccc(COc2ccc3oc(C4CC4)c(C(=O)N[C@@H](CO)C(N)=O)c3c2)cn1` [compound 750, (S)-N-(1-Amino-3-hydroxy-1-oxopropan-2-yl)-2-cyclopropyl-5-((6-methylpyridin-3-yl)methoxy)benzofuran-3-carboxamide], under setting [3], the IC50 is under 1 µM.
Consider `CNC(=O)[C@@H](CO)NC(=O)c1c(C)oc2ccc(OCc3scnc3C)cc12` [compound 276, (R)-N-(3-hydroxy-1-(methylamino)-1-oxopropan-2-yl)-2-methyl-5-((4-methylthiazol-5-yl)methoxy)benzofuran-3-carboxamide], for which, for the setting “PS 50 μM, cpds 200-299”, the IC50 is under 1 µM.
On to `Cc1oc2ccc(OCc3c(F)cnn3C)cc2c1C(=O)N[C@@H](CO)C(N)=O` [compound 302, (S)-N-(1-amino-3-hydroxy-1-oxopropan-2-yl)-5-((4-fluoro-1-methyl-1H-pyrazol-5-yl)methoxy) -2-methylbenzofuran-3-carboxamide], for which the IC50 (PS 50 μM, cpds 300-399) was under 1 µM.
On to `Cc1oc2ccc(OCc3nccs3)cc2c1C(=O)NC1(CO)CCOCC1` [compound 049, N-(4-(hydroxymethyl)tetrahydro-2H-pyran-4-yl)-2-methyl-5-(thiazol-2-ylmethoxy)benzofuran-3-carboxamide], for which the half-maximal inhibitory concentration (IC50) under setting [1] is under 1 µM.
`Cc1ncsc1COc1ccc2oc(C)c(C(=O)n3ccc(N)n3)c2c1` [compound 192, (3-amino-1H-pyrazol-1-yl) (2-methyl-5-((4-methylthiazol-5-yl)methoxy)benzofuran-3-yl) -methanone] gave an IC50 under setting [1] of over 20 µM.
For the compound `Cc1ncc(COc2ccc3oc(C)c(C(=O)NC4(CO)CCC4)c3c2)s1` [compound 414, N-(1-(hydroxymethyl)cyclobutyl)-2-methyl-5-((2-methylthiazol-5-yl)methoxy)benzofuran-3-carboxamide], the IC50 under setting [4] is under 1 µM.
With `Cc1cc(COc2ccc3oc(C)c(C(=O)NC4(CO)CCOCC4)c3c2)no1` [compound 618, N-(4-(hydroxymethyl)tetrahydro-2H-pyran-4-yl)-2-methyl-5-((5-methylisoxazol-3-yl)methoxy)benzofuran-3-carboxamide], under setting [2], the concentration for half-maximal inhibition (IC50) was under 1 µM.
As to `Cc1oc2ccc(OCc3cncs3)cc2c1C(=O)N[C@H]1CCNC1` [compound 024, (S)-2-methyl-N-(pyrrolidin-3-yl)-5-(thiazol-5-ylmethoxy)benzofuran-3-carboxamide], under setting [1], the half-inhibitory concentration (IC50) was under 1 µM.
`Cc1ncccc1COc1ccc2oc(C)c(C(=O)NC3(CO)CCOCC3)c2c1` [compound 611, N-(4-(hydroxymethyl)tetrahydro-2H-pyran-4-yl)-2-methyl-5-((2-methylpyridin-3-yl)methoxy)benzofuran-3-carboxamide] yielded an IC50 under setting [2] of under 1 µM.
Where the note is “PS 50 μM, cpds 300-399”, `COC[C@H](NC(=O)c1c(C)oc2ccc(OCc3cnc(C)s3)cc12)C(N)=O` [compound 303, (S)-N-(1-amino-3-methoxy-1-oxopropan-2-yl)-2-methyl-5-((2-methylthiazol-5-yl)methoxy)benzofuran-3-carboxamide] displayed an IC50 of under 1 µM.
On to `Cc1oc2ccc(OCc3cccnc3C(F)(F)F)cc2c1C(=O)NC(C)(CO)CO` [compound 424, N-(1,3-dihydroxy-2-methylpropan-2-yl)-2-methyl-5-((2-(trifluoromethyl)pyridin-3-yl)methoxy)benzofuran-3-carboxamide], for which, under setting [4], the IC50 was under 1 µM.
In turn, `Cc1oc2ccc(OCc3ccnn3C)cc2c1C(=O)NC1CCNCC1(F)F` (single isomer, unassigned) [cpd 543-En 1] came in with an IC50 under setting [5] of under 1 µM.
Consider `Cc1oc2ccc(OCc3cccnc3C(F)(F)F)cc2c1C(=O)NC(C)(C)CO` [compound 109, N-(1-hydroxy-2-methylpropan-2-yl)-2-methyl-5-((2-(trifluoromethyl)pyridin-3-yl)methoxy)benzofuran-3-carboxamide], for which the IC50 under setting [1] was under 1 µM.
